Test results reported in US5030647A, “Anti-inflammatory thienylbenzylamine compounds” (Boehringer Ingelheim Pharmaceuticals, Inc., priority 1990, dated 1991).
Structures can show the parent of a compound that is named as a salt. Where two headings read alike, the source gives them in different places.

How the values were obtained:
[1] = tested on: human PMN; test: Chemotaxis of human peripheral leukocytes (human PMN chemotaxis, FMLP as chemoattractant); assay type: cell-based; details: Leukocyte, FMLP 1×10^-8 M; for inhibition at 1 µM: read-out: PERCENT INHIBITION (human PMN chemotaxis) 1 μM; for inhibition at 0.01 µM: read-out: PERCENT INHIBITION (human PMN chemotaxis) 0.01 μm
Protocol: A) Equal parts of citrated peripheral venous blood drawn from a normal volunteer were mixed with saline containing 6% dextran. The mixture was allowed to sediment for 30-40 minutes in a 50 ml polypropylene centrifuge tube. B) The plasma was decanted and centrifuged at 1500 rpm for 7 minutes and washed with saline. C) The supernatant was decanted and the contaminating red blood cells were eliminated by adding ice cold lysing solution and allowing the cell suspension to stand on ice for 5 minutes. […] E) The tubes were centrifuged at 400g for 30 minutes at room temperature. F) The supernatant was decanted and the PMNs (pelleted on the bottom of the tubes) were washed with saline and with Hanks buffer. The cells were adjusted to a final concentration of 3×10^6 cells/ml in Hanks buffer containing 0.5% BSA. 1) Chemoattractant: serial dilution was prepared of the stocks (10^-3 M) N-Formyl-methionyl-leucylphenylalanine in Hanks buffer and 130 μl of 1×10^-8 M solution was pipetted into the lower bottom chamber. The bottom chamber of the negative control was filled with saline. 2) Placed Millipore membranes to completely cover the wells and allowed the liquid to absorb. 3) Placed on upper chamber and tighten retaining nuts. 1) Sample preparation: Mixed equal volume of sample diluted in Hanks buffer containing […] and cell suspension in a test tube prior to pipetting 200 μl into appropriate duplicate chambers. 2) Incubated chambers at 37° C. for 40-60 minutes. 10) Three to five fields per membrane were counted with the aid of the Image Analyser (optimal 40-10). Special effort was made to select a standard for evaluating the cell monolayer in which the distribution of cells in the field of view is uniform. The number of cells at each […] level beneath the selected monolayer was then counted and the chemotactic index (CI) calculated by multiplying the individual cell count at each level by their corresponding depth of penetration, and taking the sum of these numbers. 11) The results in Table II are recorded as percent inhibition. Percent inhibition by each thienylbenzylamime was calculated as follows: [formula] The CI of the control was determined by conducting the assay with N-formyl-methionyl-leucylphenylalanine (FMLP) alone without any thienlbenzylamine. The background was determined by conducting the assay without any FMLP.

[2] = Hygroscopicity and stability in air of the hydrochloride salt; assay type: physicochemical
Protocol: D. Hydrochloride salt of 5-chloro-2[(2-dimethylaminomethylphenyl) hydroxymethyl]thiophene 1.0 g of the 5-chloro-2-[(2-dimethylaminomethylphenyl)hydroxymethyl]thiophene prepared in C was dissolved in ether. The etheral solution was cooled to -80° C. Upon addition of an ethereal HCl solution a white precipitate was obtained which was immediately filtered under N2 and dried in high vacuum without heating.

[3] = tested on: paw swelling; test: Reverse passive Arthus reaction, inhibition of paw swelling after oral dosing; assay type: in vivo; details: Rattus norvegicus, po, 30 mg/kg oral, rats
Protocol: The reverse passive Arthus reaction is initiated by the interaction of antigen and antibody resulting in the formation of a precipitating immune complex, followed by fixation of complement, accumulation of leukocytes, edema and hemorrhage. The immunopathology of rheumatoid arthritis involves many of the parameters found in this reaction. Test groups (5 rats per group) are dosed orally with compounds one hour prior to the sub-plantar injection into the right hind paw of rabbit anti-ovalbumin antibody (50 μg/0.1 ml). Immediately afterwards, ovalbumin (Sigma, #5503) (5 mg/0.2 ml) is injected i.v. via the tail vein. The right hind paw volume is measured at hourly intervals, from one to four hours after the injection of the immune reactants. The change in paw volume for each animal is calculated by subtracting zero hour paw volume (before injection) from the paw volume at the time of measurement. The mean of these values is calculated for each group. Results are expressed in Table I below as percent inhibition of paw swelling compared to untreated controls.

[4] = 2 h, 2 hours, read-out: % INHIBITION (of paw swelling) HOUR 2
[5] = 3 h, 3 hours, read-out: % INHIBITION (of paw swelling) HOUR 3
[6] = 4 h, 4 hours, read-out: % INHIBITION (of paw swelling) HOUR 4

| SMILES | inhibition at 1 µM [1] [%] | inhibition at 0.01 µM [1] [%] | hygroscopicity [2] | stability in air ([2]; in air) | inhibition in vivo at 30 mg/kg [3, 4] [%] | inhibition in vivo at 30 mg/kg [3, 5] [%] | inhibition in vivo at 30 mg/kg [3, 6] [%] |
| --- | --- | --- | --- | --- | --- | --- | --- |
| CN(C)Cc1ccccc1C(O)c1ccc(Cl)s1.Cl (stereo not drawn) [Compound 2, 5-chloro-2-[(2-dimethylaminomethylphenyl)hydroxymethyl]thiophene hydrochloride] | 76 | 57 | extremely hygroscopic | unstable in air |  |  |  |
| CN(C)Cc1ccccc1C(O)c1sccc1Cl (stereo not drawn) [Compound 5, 3-chloro-2-[(2-dimethylaminomethylphenyl)hydroxymethyl]thiophene] | 34 | 34 |  |  | 35.6 | 13.6 | 32.3 |
| CCN(CC)Cc1ccccc1C(O)c1ccc(Cl)s1 (stereo not drawn) [Compound 6, 5-chloro-2-[(2-diethylaminomethylphenyl)hydroxymethyl]thiophene] | 25 | 24 |  |  | 46 | 35.9 | 0 |
| CCOC(c1ccc(Cl)s1)c1ccccc1CN(C)C (stereo not drawn) [Compound 7, 5-chloro-2-[(2-dimethylaminomethylphenyl)ethoxymethyl]thiophene] | 41 | 37 |  |  | 24.2 | 0 | 0 |
| CN(CCO)Cc1ccccc1C(O)c1ccc(Cl)s1 (stereo not drawn) [Compound 8] | 42 | 35 |  |  | 26.9 | 18.2 | 2.8 |
| COC(c1ccc(Cl)s1)c1ccccc1CN(CCO)CCO (stereo not drawn) [Compound 9, 5-chloro-2-[2-(N,N-diethanolaminomethyl-phenyl)methoxymethyl]thiophene] | 49 | 23 |  |  | 20.8 | 3.6 | 0 |
| CN(C)Cc1ccccc1C(=O)c1ccc(Cl)s1 [Compound 11, 5-chloro-2-(2-dimethylaminomethylbenzoyl)thiophene] | 33 | 37 |  |  | 40.5 | 18.8 | 1.5 |
| CN(C)Cc1ccccc1Cc1ccc(Cl)s1 [Compound 12, 5-chloro-2-(2-dimethylaminomethylphenylmethyl)thiophene] | 52 | 54 |  |  | 65.8 | 51.1 | 25.5 |
| CN1Cc2ccccc2C1c1ccc(Cl)s1 (stereo not drawn) [Compound 14] | 51 | 0 |  |  | 64.4 | 49.9 | 17.8 |
| CN(C)Cc1ccccc1C(O)c1ccsc1 (stereo not drawn) [Compound 21] | 54 | 35 |  |  | 39 | 18 | 30 |
| CN(C)Cc1ccccc1C(O)c1ccsc1Cl (stereo not drawn) [Compound 22, 2-chloro-3-[(2-N,N-dimethylaminomethylphenyl)hydroxymethyl]thiophene hydrochloride] | 29 |  |  |  | 22 | 0 | 0 |
| CN(C)Cc1ccccc1C(O)c1csc(Br)c1 (stereo not drawn) [Compound 23, 5-bromo-3-[(2-N,N-dimethylaminomethylphenyl)hydroxymethyl] thiophene hydrochloride] | 34 |  |  |  | 72 | 66 | 44 |
| CN(C)Cc1ccccc1C(O)c1csc(Cl)c1 (stereo not drawn) [Compound 24, 5-chloro-3-[(2-N,N-dimethylaminomethylphenyl)hydroxymethyl]thiophene hydrochloride] | 19 |  |  |  | 51 | 54 | 53 |
| CN(C)Cc1ccccc1C(C)(O)c1ccc(Cl)s1 (stereo not drawn) [Compound 33, N,N-dimethyl-2-[1-(5-chlorothien-2-yl)-1-hydroxyethyl]benzylamine hydrochloride] | 26 | 26 |  |  | 66 | 60 | 40 |
